Data as given in patent publication US11795169B2, “MAP4K4 inhibitors” (IMPERIAL COLLEGE INNOVATIONS LIMITED, priority 2017, dated 2023).
Like-named read-outs stand apart in the source and are kept apart here.

Assays:
ABL1 = ABL1 (Homo sapiens (Human), UniProt P00519); test: Kinase selectivity panel: ABL1; format: biochemical; settings: for IC50: read-out: pIC50 ABL1 (converted)
From the text: (§1) Compounds of the present invention were screened for their inhibitory activity against MAP4K4, versus selected off-target hits found with early members of this chemical series. MAP4K4 kinase activity was monitored using the CisBio HTRF Transcreener ADP assay, acompetitive immunoassay with a reproducible Z′>0.6. In the detection step, endogenous ADP and d2-labeled ADP compete for binding an anti-ADP monoclonal antibody labelled with Eu^3+ cryptate. A ratiometric fluorescent read-out is used at 665 and 620 nm. […] Assays were run in Greiner low volume plates with a final reaction volume of 10 μl. The MAP4K4 inhibition data are provided in Table 33 below for selected compounds of the present invention. The data has been categorised based on the IC50 value of the compound as “A”, “B” or “C”.
(§2) The data in Table 34 also provides the fold selectivity of the two compounds in favour of MAP4K4 over the tested kinase. The fold selectivity is indicated in parenthesis.

GCK/MAP4K2 = GCK/MAP4K2 (Homo sapiens (Human), UniProt Q12851); test: Kinase selectivity panel: GCK/MAP4K2; format: biochemical; settings: for IC50: read-out: pIC50 GCK/MAP4K2 (converted)
From the text: as §1, §2

MINK1/MAP4K6 = MINK1/MAP4K6 (Homo sapiens (Human), UniProt Q8N4C8); test: Kinase selectivity panel: MINK1/MAP4K6; format: biochemical; settings: read-out: pIC50 MINK1/MAP4K6 (converted)
From the text: as §1, §2

MLK3/MAP3K11 = MLK3/MAP3K11 (Homo sapiens (Human), UniProt Q16584); test: Kinase selectivity panel: MLK3/MAP3K11; format: biochemical; settings: for IC50: read-out: pIC50 MLK3/MAP3K11 (converted)
From the text: as §1, §2

KHS/MAP4K5 = KHS/MAP4K5 (Homo sapiens (Human), UniProt Q9Y4K4); test: Kinase selectivity panel: KHS/MAP4K5; format: biochemical; settings: for IC50: read-out: pIC50 KHS/MAP4K5 (converted)
From the text: as §1, §2

[1] = molecular target: human MAP4K4 kinase domain (Homo sapiens (Human), UniProt O95819); test: MAP4K4 kinase activity, CisBio HTRF Transcreener ADP assay; format: biochemical
From the text: as §1

GSK3β = GSK3β (Homo sapiens (Human), UniProt P49841); test: Kinase selectivity panel: GSK3β; format: biochemical; settings: for IC50: read-out: pIC50 GSK3β (converted)
From the text: as §1, §2

Aurora B = Aurora B (Homo sapiens (Human), UniProt Q96GD4); test: Kinase selectivity panel: Aurora B; format: biochemical; settings: for IC50: read-out: pIC50 Aurora B (converted)
From the text: as §1, §2

TNIK/MAP4K7 = TNIK/MAP4K7 (Homo sapiens (Human), UniProt Q9UKE5); test: Kinase selectivity panel: TNIK/MAP4K7; format: biochemical; settings: read-out: pIC50 TNIK/MAP4K7 (converted)
From the text: as §1, §2

GLK/MAP4K3 = GLK/MAP4K3 (Homo sapiens (Human), UniProt Q8IVH8); test: Kinase selectivity panel: GLK/MAP4K3; format: biochemical; settings: for IC50: read-out: pIC50 GLK/MAP4K3 (converted)
From the text: as §1, §2

FLT3 = FLT3 (Homo sapiens (Human), UniProt P36888); test: Kinase selectivity panel: FLT3; format: biochemical; settings: for IC50: read-out: pIC50 FLT3 (converted)
From the text: as §1, §2

VEGFR = test: Kinase selectivity panel: VEGFR; format: biochemical
Method: (§3) In the detection step, endogenous ADP and d2-labeled ADP compete for binding an anti-ADP monoclonal antibody labelled with Eu^3+ cryptate. […] Assays were run in Greiner low volume plates with a final reaction volume of 10 μl.
(§4) The fold selectivity is indicated in parenthesis.

MLK1/MAP3K9 = MLK1/MAP3K9 (Homo sapiens (Human), UniProt P80192); test: Kinase selectivity panel: MLK1/MAP3K9; format: biochemical; settings: for IC50: read-out: pIC50 MLK1/MAP3K9 (converted)
From the text: as §1, §2

[2] = system: CorV.4U cardiomyocytes (hiPSC-CMs); test: Protection of CorV.4U cardiomyocytes from H2O2 or menadione (luminescent cell viability assay, human cardiac troponin assay); format: cell-based; settings: Homo sapiens, Cardiomyocyte; read-out: EC50, protection of human cardiomyocytes
From the text: To substantiate the hypothesis that pharmacological inhibition of MAP4K4 would confer resistance to cell death in human cardiomyocytes, cytoprotection was next assessed using hiPSC-CMs.

NUAK = test: Kinase selectivity panel: NUAK; format: biochemical
Method: as §3, §4

[3] = ATP at Km (10 μM), 0.5 nM kinase domain, 2 h, read-out: MAP4K4
[4] = read-out: pIC50 MAP4K4 (converted)

Chain of MLK3/MAP3K11 (Q16584 whole entry): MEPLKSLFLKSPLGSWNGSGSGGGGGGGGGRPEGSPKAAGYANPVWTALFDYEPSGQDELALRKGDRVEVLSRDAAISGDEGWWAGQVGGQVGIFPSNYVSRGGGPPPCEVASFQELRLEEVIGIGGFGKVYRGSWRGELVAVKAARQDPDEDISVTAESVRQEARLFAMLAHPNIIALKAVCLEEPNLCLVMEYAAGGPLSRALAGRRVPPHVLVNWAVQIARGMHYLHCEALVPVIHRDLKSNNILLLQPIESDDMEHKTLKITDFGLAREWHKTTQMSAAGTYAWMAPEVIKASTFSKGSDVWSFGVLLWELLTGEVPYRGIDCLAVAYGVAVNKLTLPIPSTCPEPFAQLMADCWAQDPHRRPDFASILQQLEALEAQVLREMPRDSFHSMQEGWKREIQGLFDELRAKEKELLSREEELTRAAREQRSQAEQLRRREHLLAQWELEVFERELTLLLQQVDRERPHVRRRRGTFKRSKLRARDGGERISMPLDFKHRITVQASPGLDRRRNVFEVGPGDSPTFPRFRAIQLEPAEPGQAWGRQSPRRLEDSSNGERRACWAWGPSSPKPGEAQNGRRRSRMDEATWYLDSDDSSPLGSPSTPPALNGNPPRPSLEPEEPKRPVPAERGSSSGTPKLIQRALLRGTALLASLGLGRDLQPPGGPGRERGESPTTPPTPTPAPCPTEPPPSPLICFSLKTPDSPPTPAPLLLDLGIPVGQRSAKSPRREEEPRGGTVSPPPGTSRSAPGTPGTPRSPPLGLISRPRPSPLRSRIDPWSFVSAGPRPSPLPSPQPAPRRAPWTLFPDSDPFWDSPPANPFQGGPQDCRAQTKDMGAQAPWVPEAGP
Chain of MLK1/MAP3K9 (P80192 whole entry): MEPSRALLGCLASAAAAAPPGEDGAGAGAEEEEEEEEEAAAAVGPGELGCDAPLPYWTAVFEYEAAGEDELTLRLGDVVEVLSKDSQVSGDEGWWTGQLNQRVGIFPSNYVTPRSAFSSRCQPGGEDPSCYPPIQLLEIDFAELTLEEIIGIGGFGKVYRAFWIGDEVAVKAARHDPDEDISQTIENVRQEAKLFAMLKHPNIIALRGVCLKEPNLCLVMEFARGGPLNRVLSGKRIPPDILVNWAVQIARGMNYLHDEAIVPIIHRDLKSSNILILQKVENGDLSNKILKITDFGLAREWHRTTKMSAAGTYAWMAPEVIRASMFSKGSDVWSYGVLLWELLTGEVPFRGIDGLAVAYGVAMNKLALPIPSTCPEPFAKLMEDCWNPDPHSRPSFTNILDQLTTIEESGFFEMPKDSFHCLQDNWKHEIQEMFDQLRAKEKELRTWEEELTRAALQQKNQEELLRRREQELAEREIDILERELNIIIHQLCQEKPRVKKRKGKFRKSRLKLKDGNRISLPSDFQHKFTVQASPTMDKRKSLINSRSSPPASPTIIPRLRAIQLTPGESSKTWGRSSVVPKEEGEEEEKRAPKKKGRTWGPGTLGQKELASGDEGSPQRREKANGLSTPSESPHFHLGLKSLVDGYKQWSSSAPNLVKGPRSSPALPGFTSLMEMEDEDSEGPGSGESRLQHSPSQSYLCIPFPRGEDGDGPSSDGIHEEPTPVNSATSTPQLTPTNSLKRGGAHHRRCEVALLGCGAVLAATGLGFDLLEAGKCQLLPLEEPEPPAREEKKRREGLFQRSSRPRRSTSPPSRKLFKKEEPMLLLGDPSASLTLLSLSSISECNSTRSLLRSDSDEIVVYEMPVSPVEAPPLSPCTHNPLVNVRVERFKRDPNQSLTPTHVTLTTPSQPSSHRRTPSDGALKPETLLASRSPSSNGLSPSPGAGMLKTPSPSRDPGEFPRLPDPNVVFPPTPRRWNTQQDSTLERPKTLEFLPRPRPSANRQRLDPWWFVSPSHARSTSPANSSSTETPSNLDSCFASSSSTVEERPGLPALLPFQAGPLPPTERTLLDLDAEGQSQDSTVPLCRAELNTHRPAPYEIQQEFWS
Chain of Aurora B (Q96GD4 whole entry): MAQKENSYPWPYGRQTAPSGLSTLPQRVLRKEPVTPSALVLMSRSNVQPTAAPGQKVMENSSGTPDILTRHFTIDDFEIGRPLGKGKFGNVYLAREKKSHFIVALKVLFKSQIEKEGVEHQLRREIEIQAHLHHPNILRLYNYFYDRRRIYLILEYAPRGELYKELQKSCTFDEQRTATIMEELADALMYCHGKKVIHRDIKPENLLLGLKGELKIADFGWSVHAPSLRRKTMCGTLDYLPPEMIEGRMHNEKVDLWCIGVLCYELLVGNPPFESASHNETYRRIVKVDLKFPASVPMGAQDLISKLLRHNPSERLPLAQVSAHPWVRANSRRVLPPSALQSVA
Chain of GSK3β (P49841 whole entry, species assumed): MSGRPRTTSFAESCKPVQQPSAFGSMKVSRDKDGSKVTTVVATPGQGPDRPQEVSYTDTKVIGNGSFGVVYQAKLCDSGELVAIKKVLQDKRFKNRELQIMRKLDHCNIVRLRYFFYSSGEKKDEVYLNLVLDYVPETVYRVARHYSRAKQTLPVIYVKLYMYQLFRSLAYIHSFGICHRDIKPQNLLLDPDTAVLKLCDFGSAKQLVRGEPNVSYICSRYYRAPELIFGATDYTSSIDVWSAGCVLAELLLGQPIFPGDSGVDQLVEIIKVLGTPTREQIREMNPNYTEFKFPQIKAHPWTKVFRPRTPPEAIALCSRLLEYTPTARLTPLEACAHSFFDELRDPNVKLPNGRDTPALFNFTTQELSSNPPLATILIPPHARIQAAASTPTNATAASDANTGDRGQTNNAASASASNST
Chain of GCK/MAP4K2 (Q12851 whole entry): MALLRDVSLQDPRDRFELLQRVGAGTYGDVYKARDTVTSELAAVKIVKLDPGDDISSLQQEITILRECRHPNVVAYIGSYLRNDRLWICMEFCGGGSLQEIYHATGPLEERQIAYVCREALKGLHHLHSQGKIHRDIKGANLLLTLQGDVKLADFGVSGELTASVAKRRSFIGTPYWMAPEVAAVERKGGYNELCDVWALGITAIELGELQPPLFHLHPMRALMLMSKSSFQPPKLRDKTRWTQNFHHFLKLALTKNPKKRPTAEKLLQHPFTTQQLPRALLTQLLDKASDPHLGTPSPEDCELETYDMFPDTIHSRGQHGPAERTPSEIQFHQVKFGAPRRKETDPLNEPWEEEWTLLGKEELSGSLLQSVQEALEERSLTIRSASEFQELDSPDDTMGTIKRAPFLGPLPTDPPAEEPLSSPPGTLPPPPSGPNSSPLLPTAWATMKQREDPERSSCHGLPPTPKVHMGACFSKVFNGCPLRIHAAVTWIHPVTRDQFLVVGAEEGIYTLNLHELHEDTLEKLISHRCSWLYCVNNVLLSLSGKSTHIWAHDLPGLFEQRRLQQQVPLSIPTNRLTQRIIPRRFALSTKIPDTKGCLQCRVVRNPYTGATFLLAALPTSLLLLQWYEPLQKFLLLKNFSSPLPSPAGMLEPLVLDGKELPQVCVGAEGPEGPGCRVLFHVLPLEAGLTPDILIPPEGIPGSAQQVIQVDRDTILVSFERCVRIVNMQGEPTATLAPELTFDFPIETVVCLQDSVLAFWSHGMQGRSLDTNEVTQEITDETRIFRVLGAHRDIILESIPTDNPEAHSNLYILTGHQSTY
Chain of ABL1 (P00519 whole entry, species assumed): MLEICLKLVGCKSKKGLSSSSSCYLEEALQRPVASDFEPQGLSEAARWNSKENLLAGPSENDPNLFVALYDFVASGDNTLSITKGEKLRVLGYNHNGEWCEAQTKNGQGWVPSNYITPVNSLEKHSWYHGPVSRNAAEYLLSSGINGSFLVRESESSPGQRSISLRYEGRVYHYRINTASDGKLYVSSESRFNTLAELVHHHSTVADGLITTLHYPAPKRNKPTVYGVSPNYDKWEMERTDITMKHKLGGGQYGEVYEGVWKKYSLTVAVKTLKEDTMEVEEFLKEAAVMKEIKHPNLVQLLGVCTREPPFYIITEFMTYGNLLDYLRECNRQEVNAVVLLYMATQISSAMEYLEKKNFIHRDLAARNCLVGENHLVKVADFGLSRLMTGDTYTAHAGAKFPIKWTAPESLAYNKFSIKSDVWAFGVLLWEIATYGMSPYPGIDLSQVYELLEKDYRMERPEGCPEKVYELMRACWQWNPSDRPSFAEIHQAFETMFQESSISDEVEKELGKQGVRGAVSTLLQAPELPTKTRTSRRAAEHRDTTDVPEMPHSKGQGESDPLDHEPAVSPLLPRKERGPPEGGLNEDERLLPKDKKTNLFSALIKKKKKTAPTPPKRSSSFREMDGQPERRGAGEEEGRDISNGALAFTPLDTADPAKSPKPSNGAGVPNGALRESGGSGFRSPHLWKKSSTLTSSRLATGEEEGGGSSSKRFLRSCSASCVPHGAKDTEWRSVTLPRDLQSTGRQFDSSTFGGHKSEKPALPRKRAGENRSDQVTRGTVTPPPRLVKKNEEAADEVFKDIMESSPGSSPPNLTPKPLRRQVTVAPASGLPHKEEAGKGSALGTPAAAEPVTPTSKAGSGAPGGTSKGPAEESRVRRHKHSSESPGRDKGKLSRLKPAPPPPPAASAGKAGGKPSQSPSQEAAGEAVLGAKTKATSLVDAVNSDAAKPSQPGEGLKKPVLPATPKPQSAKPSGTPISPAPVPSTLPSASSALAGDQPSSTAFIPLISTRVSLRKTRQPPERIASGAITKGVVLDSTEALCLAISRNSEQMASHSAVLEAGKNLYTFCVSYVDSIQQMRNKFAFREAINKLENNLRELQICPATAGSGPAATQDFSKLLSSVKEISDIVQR
Chain of human MAP4K4 kinase domain (O95819 25-289): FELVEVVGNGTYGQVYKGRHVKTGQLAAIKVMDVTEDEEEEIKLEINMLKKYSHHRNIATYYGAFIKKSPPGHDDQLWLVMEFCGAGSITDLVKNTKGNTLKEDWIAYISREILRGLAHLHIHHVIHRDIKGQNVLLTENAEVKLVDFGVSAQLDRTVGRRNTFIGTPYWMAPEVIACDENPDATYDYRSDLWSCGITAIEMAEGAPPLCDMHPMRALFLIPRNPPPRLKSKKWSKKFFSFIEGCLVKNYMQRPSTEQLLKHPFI

COc1cccc(-c2cn(-c3ccccc3)c3nc[nH]c(=O)c23)c1 [Ex-22]
fold selectivity for MAP4K4 over ABL1 (ABL1): (199) fold | IC50 (ABL1): 31600 nM | fold selectivity for MAP4K4 over GCK/MAP4K2 (GCK/MAP4K2): (50) fold | IC50 (GCK/MAP4K2): 7940 nM | IC50 (MINK1/MAP4K6): 6.61 nM | fold selectivity for MAP4K4 over MLK3/MAP3K11 (MLK3/MAP3K11): (199) fold | IC50 (MLK3/MAP3K11): 31600 nM | fold selectivity for MAP4K4 over KHS/MAP4K5 (KHS/MAP4K5): (199) fold | IC50 (KHS/MAP4K5): 437 nM | IC50 [1, 3]: 100 to 1000 nM | IC50 [1, 4]: 158 nM | fold selectivity for MAP4K4 over GSK3β (GSK3β): (199) fold | IC50 (GSK3β): 31600 nM | fold selectivity for MAP4K4 over Aurora B (Aurora B): (199) fold | IC50 (Aurora B): 31600 nM | IC50 (TNIK/MAP4K7): 200 nM | fold selectivity for MAP4K4 over GLK/MAP4K3 (GLK/MAP4K3): (199) fold | IC50 (GLK/MAP4K3): 31600 nM | fold selectivity for MAP4K4 over FLT3 (FLT3): (199) fold | IC50 (FLT3): 31600 nM | fold selectivity for MAP4K4 over VEGFR (VEGFR): (79) fold | pIC50 VEGFR (VEGFR): 4.9 | fold selectivity for MAP4K4 over MLK1/MAP3K9 (MLK1/MAP3K9): (25) fold | IC50 (MLK1/MAP3K9): 3980 nM

CC(C)(O)CCOc1ccc(-c2cn(-c3ccccc3)c3nc[nH]c(=O)c23)c(F)c1 [Ex-107, 5-(2-fluoro-4-(3-hydroxy-3-methylbutoxy)phenyl)-7-phenyl-3,7-dihydro-4H-pyrrolo[2,3-d]pyrimidin-4-one]
EC50 [2]: < 1000 nM

CC(C)(O)CCOc1ccc(-c2cn(-c3ccccc3)c3nc[nH]c(=O)c23)cc1 [Ex-40, 5-(4-(3-hydroxy-3-methylbutoxy)phenyl)-7-phenyl-3,7-dihydro-4H-pyrrolo[2,3-d]pyrimidin-4-one]
EC50 [2]: < 1000 nM | IC50 [1, 3]: ≤ 100 nM

O=c1[nH]cnc2c1c(-c1ccc(OCCO)cc1F)cn2-c1ccccc1 [Ex-56, 5-[2-Fluoro-4-(2-hydroxy-ethoxy)-phenyl]-7-phenyl-3,7-dihydro-pyrrolo[2,3-d]pyrimidin-4-one]
fold selectivity for MAP4K4 over NUAK (NUAK): (501) fold | pIC50 NUAK (NUAK): 5.6 | fold selectivity for MAP4K4 over ABL1 (ABL1): (398) fold | IC50 (ABL1): 2000 nM | fold selectivity for MAP4K4 over GCK/MAP4K2 (GCK/MAP4K2): (79) fold | IC50 (GCK/MAP4K2): 398 nM | IC50 (MINK1/MAP4K6): 7.94 nM | fold selectivity for MAP4K4 over MLK3/MAP3K11 (MLK3/MAP3K11): (39) fold | IC50 (MLK3/MAP3K11): 200 nM | fold selectivity for MAP4K4 over KHS/MAP4K5 (KHS/MAP4K5): (199) fold | IC50 (KHS/MAP4K5): 1000 nM | IC50 [1, 3]: ≤ 100 nM | IC50 [1, 4]: 5.01 nM | fold selectivity for MAP4K4 over Aurora B (Aurora B): (1258) fold | IC50 (Aurora B): 6310 nM | IC50 (TNIK/MAP4K7): 20 nM | fold selectivity for MAP4K4 over GLK/MAP4K3 (GLK/MAP4K3): (6309) fold | IC50 (GLK/MAP4K3): 31600 nM | fold selectivity for MAP4K4 over FLT3 (FLT3): (3162) fold | IC50 (FLT3): 15800 nM | fold selectivity for MAP4K4 over VEGFR (VEGFR): (6309) fold | pIC50 VEGFR (VEGFR): 4.5 | fold selectivity for MAP4K4 over MLK1/MAP3K9 (MLK1/MAP3K9): (39) fold | IC50 (MLK1/MAP3K9): 200 nM

CC(C)(O)CCOc1ccc(-c2cn(-c3ccccc3)c3nc[nH]c(=O)c23)cc1F [Ex-123]
EC50 [2]: < 1000 nM

O=c1[nH]cnc2c1c(-c1ccc(OCCCN3CCOCC3)cc1)cn2-c1ccccc1 [Ex-27]
fold selectivity for MAP4K4 over ABL1 (ABL1): (501) fold | IC50 (ABL1): 3160 nM | fold selectivity for MAP4K4 over GCK/MAP4K2 (GCK/MAP4K2): (31) fold | IC50 (GCK/MAP4K2): 200 nM | IC50 (MINK1/MAP4K6): 6.31 nM | fold selectivity for MAP4K4 over KHS/MAP4K5 (KHS/MAP4K5): (6) fold | IC50 (KHS/MAP4K5): 39.8 nM | IC50 [1, 3]: ≤ 100 nM | IC50 [1, 4]: 6.31 nM | fold selectivity for MAP4K4 over GSK3β (GSK3β): (5011) fold | IC50 (GSK3β): 31600 nM | fold selectivity for MAP4K4 over Aurora B (Aurora B): (1584) fold | IC50 (Aurora B): 10000 nM | IC50 (TNIK/MAP4K7): 10 nM | fold selectivity for MAP4K4 over GLK/MAP4K3 (GLK/MAP4K3): (251) fold | IC50 (GLK/MAP4K3): 1580 nM | fold selectivity for MAP4K4 over FLT3 (FLT3): (1258) fold | IC50 (FLT3): 7940 nM | fold selectivity for MAP4K4 over VEGFR (VEGFR): (125) fold | pIC50 VEGFR (VEGFR): 6.1 | fold selectivity for MAP4K4 over MLK1/MAP3K9 (MLK1/MAP3K9): (13) fold | IC50 (MLK1/MAP3K9): 79.4 nM

O=C1N(CCO)CCN1c1ccc(-c2cn(-c3ccccc3)c3nc[nH]c(=O)c23)cc1 [Ex-55, 5-{4-[3-(2-Hydroxy-ethyl)-2-oxo-imidazolidin-1-yl]-phenyl}-7-phenyl-3,7-dihydro-pyrrolo[2,3-d]pyrimidin-4-one]
IC50 [1, 3]: ≤ 100 nM

O=C(O)c1ccc(-c2cn(-c3ccccc3)c3c(=O)[nH]cnc23)cc1 [Ex-102]
IC50 [1, 3]: 100 to 1000 nM

O=c1[nH]cnc2c1c(-c1ccc(OCC(O)CN3CCOCC3)cc1)cn2-c1ccccc1 (stereo not shown) [Ex-42]
IC50 [1, 3]: ≤ 100 nM

CN1CCC(COc2ccc(-c3cn(-c4ccccc4)c4c(=O)[nH]cnc34)cc2)C1 (stereo not shown) [Ex-95, 7-[4-(1-Methyl-pyrrolidin-3-ylmethoxy)-phenyl]-5-phenyl-3,5-dihydro-pyrrolo[3,2-d]pyrimidin-4-one]
IC50 [1, 3]: > 1000 nM

CN1CCN(CC(=O)Nc2ccc(-c3cn(-c4cccc(F)c4)c4nc[nH]c(=O)c34)cc2)CC1 [Ex-18]
IC50 [1, 3]: ≤ 100 nM

CN(C)Cc1cccc(-c2cn(-c3ccccc3)c3nc[nH]c(=O)c23)c1 [Ex-31]
IC50 [1, 3]: > 1000 nM

C[C@@H](O)COc1ccc(-c2cn(-c3ccccc3)c3nc[nH]c(=O)c23)cc1 [Ex-52]
IC50 [1, 3]: ≤ 100 nM

CC(C)(O)CCOc1ccc(-c2cn(-c3ccccc3)c3nc[nH]c(=O)c23)cc1C#N [Ex-128]
EC50 [2]: < 1000 nM
